One test addresses human P2X3 receptor (Homo sapiens (Human), UniProt P56373). Description: Evaluation of human P2X3 receptor inhibitory activity (Fluo-3 calcium fluorescence, FDSS 3000, ATP stimulation).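 Further: stimulus was 50 nM ATP with fluorescence followed for 3 min, and the response per well was peak post-ATP fluorescence divided by the reading at measurement start.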 The test is classed as cell-based. Particulars: C6BU-1 cells stably expressing human P2X3 receptor.
human P2X3 receptor, sequence (P56373 whole entry): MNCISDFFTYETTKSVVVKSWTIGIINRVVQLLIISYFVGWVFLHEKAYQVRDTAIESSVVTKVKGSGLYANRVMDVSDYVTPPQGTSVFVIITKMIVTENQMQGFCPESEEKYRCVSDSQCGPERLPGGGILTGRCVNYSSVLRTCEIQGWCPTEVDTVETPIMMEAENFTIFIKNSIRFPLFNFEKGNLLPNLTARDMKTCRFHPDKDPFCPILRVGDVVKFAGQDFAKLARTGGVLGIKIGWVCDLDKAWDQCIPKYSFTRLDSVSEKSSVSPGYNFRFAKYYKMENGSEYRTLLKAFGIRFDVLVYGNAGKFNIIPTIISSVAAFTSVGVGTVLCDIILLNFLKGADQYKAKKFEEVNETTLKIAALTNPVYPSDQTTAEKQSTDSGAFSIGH
On to `COC(=O)[C@@H](C)Cn1c(=O)[nH]/c(=N\c2ccc(OC)c(Cl)c2)n(Cc2ccc(Cl)cc2)c1=O` [Compound I-0702], for which the IC50 (commonly the midpoint of a concentration-inhibition curve) came out at 107 nM. On the same count and under the same terms, with `CC(C)Oc1ccc(/N=c2\[nH]c(=O)n(CCc3ncn[nH]3)c(=O)n2Cc2ccc(Cl)cc2)cc1F` [Compound I-0672, 1-(4-chlorobenzyl)-6-(3-fluoro-4-isopropoxyphenylimino)-3-[2-(1,2,4-triazol-5-yl)ethyl]-1,3,5-triazinane-2,4-dion] the figure was 8 nM; with `COc1ccc(Cn2c(=O)[nH]/c(=N\c3ccc(OC(C)C)c(F)c3)n(Cc3ccc(Cl)cc3)c2=O)cn1` [Compound I-0641], 26 nM.

Regarding `CCc1nc2ccc(/N=c3\[nH]c(=O)n(CCCCC(=O)O)c(=O)n3Cc3ccc(C)cc3)cc2s1` [Compound I-2159], the IC50 amounted to 47 nM. Regarding `COC(=O)C(C)(C)Cn1c(=O)[nH]/c(=N\c2ccc(OCC3CC3)cc2)n(Cc2ccc(Cl)cc2)c1=O` [Compound I-1236], the half-maximal inhibitory concentration (IC50) stood at 13 nM.

Take `Cc1ccc(Cn2c(=O)n(C[C@H](C)C(=O)O)c(=O)[nH]/c2=N\c2ccc(Oc3cccnc3C)cc2)cc1` [Compound I-1231]: the half-inhibitory concentration (IC50) amounted to 36 nM.

Turning to `CCn1c(=O)[nH]/c(=N\c2ccc(OCCc3ccccn3)cc2)n(Cc2ccc(Cl)cc2)c1=O` [Compound I-2201], the IC50 is 92 nM. Turning to `Cc1ccc(Cn2c(=O)n(CCCC(=O)O)c(=O)[nH]/c2=N\c2ccc3nc(C)sc3c2)cc1` [Compound I-2124], the concentration for half-maximal inhibition (IC50) was 27 nM.

Consider `C[C@@H](Oc1ccc(/N=c2\[nH]c(=O)n(CC(=O)NCC(F)(F)F)c(=O)n2Cc2ccc(Cl)cc2)cc1)C(F)(F)F` [Compound I-1961], for which the IC50 is 13 nM. The same measure, in the same setting: with `Cc1cc2cc(/N=c3\[nH]c(=O)n(C[C@H](C)C(=O)O)c(=O)n3Cc3ccc(Cl)cc3)ccc2[nH]1` [Compound I-0697] the figure was 57 nM.

Take `CCn1c(=O)[nH]/c(=N\c2ccc(Oc3cncc(C(=O)OC)c3)cc2)n(CC2CCC(C)(C)CC2)c1=O` [Compound I-2204]: the IC50 came to 28 nM. In the case of `CCOC(=O)CCCn1c(=O)[nH]/c(=N\c2ccc(Oc3ccnc(C)c3)cc2)n(Cc2ccc(C)cc2)c1=O` [Compound I-1397], the half-inhibitory concentration (IC50) is 3 nM.

Regarding `C[C@H](C(=O)O)[C@@H](C)n1c(=O)[nH]/c(=N\c2ccc(OC3CCC3)cc2)n(Cc2ccc(Cl)cc2)c1=O` [Compound I-1456], the IC50 is 14 nM.

For `Cn1c(=O)[nH]/c(=N\c2ccc(Oc3cncc(C(=O)O)c3)cc2)n(Cc2ccc(Cl)cc2)c1=O` [Compound I-2103], the IC50 was 20 nM. Same read-out and setting: with `CCn1c(=O)[nH]/c(=N\c2ccc(Oc3cncc(C(=O)O)c3)cc2)n(Cc2ccc(C)cc2)c1=O` [Compound I-2078] the figure was 8 nM. Still for that read-out and setting: with `CCOC(=O)CCn1c(=O)[nH]/c(=N\c2ccc(OC(C)C)c(COC)c2)n(Cc2ccc(C)cc2)c1=O` [Compound I-1421] the figure was 883 nM; with `CCCCOc1ccc(/N=c2\[nH]c(=O)n(C[C@H](C)C(=O)O)c(=O)n2Cc2ccc(C)cc2)cc1` [Compound I-0820], 35 nM; with `COC(=O)Cn1c(=O)[nH]/c(=N\c2ccc(OCC3CC3)cc2)n(Cc2ccc(Cl)cc2)c1=O` [Compound I-1930], 29 nM. Still for that read-out and setting: with `COC(=O)[C@@H](C)Cn1c(=O)[nH]/c(=N\c2ccc3c(c2)CCCC3)n(Cc2ccc(Cl)cc2)c1=O` [Compound I-0791] the figure was 266 nM; with `Cc1nc2ccc(/N=c3\[nH]c(=O)n([C@@H](C)[C@@H](C)C(=O)O)c(=O)n3Cc3ccc(Cl)cc3)cc2s1` [Compound I-1469], 9 nM; with `COC(=O)[C@@H](C)[C@@H](C)n1c(=O)[nH]/c(=N\c2ccc(OC3CCC3)cc2)n(Cc2ccc(C)cc2)c1=O` [Compound I-1453], 13 nM.

`CC(C)Oc1ccc(/N=c2\[nH]c(=O)n(Cc3ncn[nH]3)c(=O)n2Cc2ccc(Cl)cc2)cc1F` [Compound I-0679]: the IC50 turned out to be 32 nM.

Take `Cc1ccc(Oc2ccc(/N=c3\[nH]c(=O)n([C@@H](C)[C@@H](C)C(=O)O)c(=O)n3Cc3ccc(Cl)cc3)cc2)cn1` [Compound I-1388]: the IC50 turned out to be 9 nM. Same read-out and setting: with `CCc1cc2cc(/N=c3\[nH]c(=O)n(C[C@H](C)C(=O)OC)c(=O)n3Cc3ccc(Cl)cc3)ccc2s1` [Compound I-1947] the figure was 353 nM; with `COC(=O)CCCn1c(=O)[nH]/c(=N\c2ccc(Oc3ccc(C)nc3)cc2)n(Cc2ccc(Cl)cc2)c1=O` [Compound I-1368], 5 nM; with `Cc1ccc(Cn2c(=O)[nH]c(=O)[nH]/c2=N\c2ccc(Oc3cncc(C(=O)O)c3)cc2)cc1` [Compound I-2102], 34 nM. For `CC[C@@H](CC(=O)OC)n1c(=O)[nH]/c(=N\c2ccc(OC(C)C)c(C)c2)n(Cc2ccc(Cl)cc2)c1=O` [Compound I-0782], the IC50 turned out to be 192 nM. Same read-out and setting: with `CCn1c(=O)[nH]/c(=N\c2ccc(Oc3cncc(C(=O)OC)c3)cc2)n(Cc2ccc(C)cc2)c1=O` [Compound I-2076] the figure was 7 nM; with `CCc1cc(/N=c2\[nH]c(=O)n(CCC(=O)O)c(=O)n2Cc2ccc(C)cc2)ccc1OC(C)C` [Compound I-1199], 36 nM.

The test is the same for the next values; noted with them: C6BU-1 cells stably expressing human P2X3 receptor, Fluo-3 fluorescence, FDSS 3000.
Take `COC(=O)[C@@H](C)Cn1c(=O)[nH]/c(=N\c2ccc(OC(C)C)c(C#N)c2)n(Cc2ccc(C)cc2)c1=O` [Compound I-0951]: the 50% inhibitory concentration (IC50) amounted to 33 nM. For `COC(=O)[C@@H](C)Cn1c(=O)[nH]/c(=N\c2cccc(C3CCCCC3)c2)n(Cc2ccc(C)cc2)c1=O` [Compound I-1088], the IC50 is 548 nM. For the compound `Cc1ccc(Cn2c(=O)n([C@@H](C)[C@@H](C)C(=O)O)c(=O)[nH]/c2=N\c2ccc(OC(C)C)cc2)cc1` [Compound I-1082], the IC50 amounted to 63 nM. `Cc1ccc(Cn2c(=O)n(C[C@H](C)C(=O)O)c(=O)[nH]/c2=N\c2ccc(OC(C)C)c(Br)c2)cc1` [Compound I-0909]: the 50% inhibitory concentration (IC50) came to 7 nM.

On to `CSc1cccc(/N=c2\[nH]c(=O)n(C[C@H](C)C(=O)O)c(=O)n2Cc2ccc(C)cc2)c1` [Compound I-1154], for which the 50% inhibitory concentration (IC50) is 131 nM. For `CCOC(=O)CCn1c(=O)[nH]/c(=N\c2ccc3nc(C(C)C)sc3c2)n(Cc2ccc(C)cc2)c1=O` [Compound I-1562], the IC50 is 6 nM. The same measure, in the same setting: with `Cc1cc(/N=c2\[nH]c(=O)n(C3CN(CC(=O)O)C3)c(=O)n2Cc2ccc(Cl)cc2)ccc1OC(C)C` [Compound I-1742] the figure was 135 nM; with `CNC(=O)CCn1c(=O)[nH]/c(=N\c2ccc(Oc3ccc(O)nc3)cc2)n(Cc2ccc(Cl)cc2)c1=O` [Compound I-1600], 11 nM; with `C[C@@H](C(=O)O)[C@H](C)n1c(=O)[nH]/c(=N\c2ccc3[nH]c(S)nc3c2)n(Cc2ccc(Cl)cc2)c1=O` [Compound I-1822], 332 nM.

`Cc1ccc(Cn2c(=O)n(CCC(=O)O)c(=O)[nH]/c2=N\c2ccc(OC3CC3)c(Cl)c2)cc1` [Compound I-1608]: the IC50 worked out at 100 nM. Consider `COC(=O)[C@@H](C)[C@H](C)n1c(=O)[nH]/c(=N\c2ccc(OC(C)C)c(C)c2)n(Cc2ccc(Cl)cc2)c1=O` [Compound I-1025], for which the IC50 turned out to be 134 nM.

As to `CCc1cc2cc(/N=c3\[nH]c(=O)n(C[C@H](C)C(=O)OC)c(=O)n3Cc3ccc(Cl)cc3)ccc2s1` [Compound I-1947], the IC50 is 677 nM. For `CCCOc1ccc(/N=c2\[nH]c(=O)n(C[C@@H](C)C(=O)OC)c(=O)n2Cc2ccc(Cl)cc2)cc1` [Compound I-1034], the IC50 amounted to 5 nM. Turning to `C[C@@H](C(=O)O)[C@H](C)n1c(=O)[nH]/c(=N\c2ccc3c(c2)OC(F)(F)C(F)(F)O3)n(Cc2ccc(Cl)cc2)c1=O` [Compound I-1783], the IC50 came to 170 nM. Turning to `CCOC(=O)CCn1c(=O)[nH]/c(=N\c2ccc(OC(C)C)c(F)c2)n(CC2CCC(F)(F)CC2)c1=O` [Compound I-1884], the IC50 is 296 nM.

Regarding `CNC(=O)[C@@H](C)Cn1c(=O)[nH]/c(=N\c2ccc(Oc3ccc(O)nc3)cc2)n(Cc2ccc(C)cc2)c1=O` [Compound I-1601], the half-maximal inhibitory concentration (IC50) is 24 nM.

The test is the same for the next values; noted with them: human P2X3 receptor, Test Example 1.
For `CCCOc1ccc(/N=c2\[nH]c(=O)n(C[C@H](C)C(=O)OC)c(=O)n2Cc2ccc(C)cc2)cc1Cl` [Compound I-0839], the half-maximal inhibitory concentration (IC50) is 12 nM. Regarding `CC(C)Oc1ccc(/N=c2\[nH]c(=O)n(CC(C)(C)CC(=O)O)c(=O)n2Cc2ccc(Cl)cc2)cc1F` [Compound I-0845], the half-inhibitory concentration (IC50) came to 24 nM. As for `CCn1c(=O)[nH]/c(=N\c2ccc(Oc3ncc(C(=O)O)s3)cc2)n(Cc2ccc(F)cc2)c1=O` [Compound I-2567], the concentration for half-maximal inhibition (IC50) amounted to 38 nM. Consider `O=c1[nH]c(=O)n(Cc2ccc(Cl)cc2)/c(=N/c2ccc(Oc3cccc(F)n3)cc2)[nH]1` [Compound I-2503], for which the IC50 came out at 39 nM. Same read-out and setting: with `COC(=O)[C@@H](C)Cn1c(=O)[nH]/c(=N\c2cnc(OC3CCC3)c(C)c2)n(Cc2ccc(Cl)cc2)c1=O` [Compound I-1479] the figure was 20 nM. On to `CC[C@@H](C)Oc1ccc(/N=c2\[nH]c(=O)n(C[C@H](C)C(=O)OC)c(=O)n2Cc2ccc(C)cc2)cc1C` [Compound I-0823], for which the half-maximal inhibitory concentration (IC50) stood at 11 nM. Turning to `Cn1ccc(Oc2ccc(/N=c3\[nH]c(=O)n(C[C@H](O)CO)c(=O)n3Cc3ccc(Cl)cc3)cc2)n1` [Compound I-2412], the IC50 stood at 84 nM.

As for `CCn1c(=O)[nH]/c(=N\c2ccc3nc(Cl)sc3c2)n(Cc2ccc(Cl)cc2)c1=O` [Compound I-2321], the half-maximal inhibitory concentration (IC50) was found to be 11 nM. As for `Cc1ccc(Cn2c(=O)n(CCC(=O)O)c(=O)[nH]/c2=N\c2ccc(Oc3ccc(C#N)cn3)cc2)cc1` [Compound I-2635], the 50% inhibitory concentration (IC50) is 8 nM. Take `CCOCc1ccc(/N=c2\[nH]c(=O)n(C[C@H](C)C(=O)OC)c(=O)n2Cc2ccc(C)cc2)cc1Cl` [Compound I-1498]: the IC50 turned out to be 22 nM. In the case of `CCn1c(=O)[nH]/c(=N\c2ccc(Oc3cncc(C)n3)cc2)n(Cc2ccc(Cl)cc2)c1=O` [Compound I-2638], the half-maximal inhibitory concentration (IC50) amounted to 15 nM. Consider `CCc1cc2cc(/N=c3\[nH]c(=O)n(CC(CO)CO)c(=O)n3Cc3ccc(Cl)cc3)ccc2o1` [Compound I-2313], for which the IC50 was 8 nM. For `Cc1ccc(Cn2c(=O)n(C[C@H](C)C(=O)O)c(=O)[nH]/c2=N\c2ccc(CC(C)(C)O)c(Cl)c2)cc1` [Compound I-1532], the IC50 amounted to 25 nM. `NC(=O)CCn1c(=O)[nH]/c(=N\c2ccc(Oc3ccon3)cc2)n(Cc2ccc(Cl)cc2)c1=O` [Compound I-2443]: the IC50 is 24 nM.
